Measurements reported in ChEMBL document CHEMBL1201862, “PubChem BioAssay data set” (2004).
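48-hour exposure; five concentrations; linearly interpolated endpoints. At the GI50, growth is halved.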 Activity calls are given as the source filed them. No stated cut-off is given here; in the data, active = GI50 up to about 1.1 µM and inactive = higher.

Key:
Experiment in all cases: inhibition of tumour cell growth, NCI panel, 48 h
[1] = tested on: 786-0
[2] = tested on: A549
[3] = tested on: BT-549
[4] = tested on: CAKI-1
[5] = tested on: DU-145
[6] = tested on: HL-60
[7] = tested on: IGROV-1
[8] = tested on: MDA-N
[9] = tested on: NCI/ADR-RES
[10] = tested on: OVCAR-4
[11] = tested on: OVCAR-5
[12] = tested on: PC-3
[13] = tested on: SF-268
[14] = tested on: SK-MEL-2
[15] = tested on: SK-MEL-5
[16] = tested on: UACC-62
[17] = tested on: LOX IMVI
[18] = tested on: MDA-MB-231
[19] = tested on: T47D

Measured: GI50

N#C/C(=C\c1cc(Br)c(O)c(Br)c1)c1cccnc1
inactive: [1] 10.1 µM | [2] 34.2 µM | [3] 22.5 µM | [4] 35.7 µM | [5] > 100 µM | [6] 27 µM | [7] 52.8 µM | [8] > 100 µM | [9] 24 µM | [10] 33.3 µM | [11] 41.6 µM | [12] 22 µM | [13] 33.4 µM | [14] 19.3 µM | [15] > 10 µM | [16] 43.8 µM

CCC(O)(Cc1ccc(OC)cc1)c1ccc(OC)cc1 (centres undefined)
inactive: [1] > 100 µM | [2] > 100 µM | [3] > 100 µM | [4] > 100 µM | [5] > 100 µM | [6] > 100 µM | [7] > 100 µM | [17] > 100 µM | [18] > 100 µM | [8] > 100 µM | [9] > 100 µM | [10] 84.7 µM | [11] > 100 µM | [12] > 100 µM | [13] > 100 µM | [14] > 100 µM | [15] > 100 µM | [16] > 100 µM

O=C(Cn1c(C(=O)/C=C/c2cccs2)nc2ccccc21)c1ccc(Cl)cc1
inactive: [1] 16.3 µM | [2] 23.3 µM | [3] 21 µM | [5] 26.7 µM | [6] 18.3 µM | [7] 16.7 µM | [17] 13.9 µM | [18] 16.8 µM | [8] 21.1 µM | [9] 14 µM | [10] 14.6 µM | [11] > 100 µM | [13] 12.6 µM | [14] 6 µM | [15] 14.4 µM | [19] 36.3 µM | [16] 25.2 µM

Nc1nc(Cl)c2ncn(Cc3ccccc3CCl)c2n1
inactive: [1] 16.9 µM | [2] 22 µM | [3] 8.18 µM | [4] 6.65 µM | [5] 14.7 µM | [6] 3.72 µM | [7] 6.34 µM | [17] 3.92 µM | [18] 2.96 µM | [9] 4.52 µM | [10] 2.48 µM | [11] 19.9 µM | [12] 15 µM | [13] 4.71 µM | [14] 18.5 µM | [15] 8.55 µM | [19] 24.2 µM | [16] 2.21 µM

O=C(O)C1CCCCC1C(=O)Nn1cnnc1 (centres undefined)
inactive: [1] > 100 µM | [2] > 100 µM | [3] > 100 µM | [5] > 100 µM | [7] > 100 µM | [17] > 100 µM | [18] > 100 µM | [8] > 100 µM | [9] > 100 µM | [10] > 100 µM | [11] > 100 µM | [12] > 100 µM | [13] > 100 µM | [14] > 100 µM | [15] > 100 µM | [16] > 100 µM

CCOc1cc2c(cc1O)C(N)C[C@@H]1[C@@H]2CC[C@]2(C)[C@@H](O)CC[C@@H]12 (some centres undefined)
inactive: [1] 40.3 µM | [3] 40.9 µM | [4] 32.9 µM | [6] 18.6 µM | [7] 52.6 µM | [17] 34.2 µM | [18] 83.9 µM | [8] 23.4 µM | [9] > 100 µM | [10] 30.8 µM | [11] > 100 µM | [12] 34.4 µM | [13] 61.7 µM | [14] 41.1 µM | [15] 30.2 µM | [19] 84.1 µM

O=C(C=P(c1ccccc1)(c1ccccc1)c1ccccc1)c1ccc(-c2cccc([N+](=O)[O-])c2)cc1
inactive: [1] 4.51 µM | [2] 3.64 µM | [4] 2.74 µM | [5] 6.07 µM | [6] 2.57 µM | [17] 2.11 µM | [18] 2.65 µM | [8] 2.88 µM | [9] 3.6 µM | [10] 2.61 µM | [11] 3.61 µM | [12] 3.57 µM | [13] 4.65 µM | [14] 1.63 µM | [15] 2.22 µM | [19] 3.85 µM | [16] 4.2 µM

CC(C)(C)OC(=O)NC(Cc1ccc(OCc2ccccc2)cn1)C(=O)O (centres undefined)
inactive: [1] > 100 µM | [2] > 100 µM | [3] > 100 µM | [4] > 100 µM | [5] > 100 µM | [6] > 100 µM | [7] > 100 µM | [17] > 100 µM | [18] > 100 µM | [8] > 100 µM | [9] > 100 µM | [10] > 100 µM | [11] > 100 µM | [12] > 100 µM | [13] > 100 µM | [15] > 100 µM
